{"source": "patent US8759104B2", "about": "“Cationic lipids” (The University Court of the University of Edinburgh, priority 2010, dated 2014)", "data": [{"system": "HeLa cells", "assay": "Transfection of pEGFP-C1 reporter plasmid into HeLa cells, GFP expression by flow cytometry", "type": "cell-based, human", "conditions": "HeLa cells 48 h after transfection with reporter plasmid, flow cytometry", "method": "The corresponding cationic lipid (1 mM in methanol) were mixed in different proportions with DOPE (10 mg/mL in chloroform) and the organic solvent removed by evaporation in an oven (37° C.) overnight. The resultant thin films were then hydrated with PBS. The solutions were vortexed (10-20 s) and incubated at ambient temperature for 20 min. Plasmid DNA or siRNA solution (0.04 mg/mL in PBS or another isotonic solution) was subsequently added and the solution vortexed (10-20 s). The lipoplexes were incubated at room temperature for 20 min before being used.\nHuman HeLa cells were grown in RPMI supplemented with 4 mM glutamine, 10% FCS and 100 units/ml penicillin/streptomycin (RPMI-CM) until 80% confluence. HEK293 and B16F10 cells were grown in DMEM supplemented with 4 mM glutamine, 10% FCS and 100 units/ml penicillin/streptomycin (DMEM-CM) until 80% confluence. Cells were then suspended using trypsin/EDTA and counted. 2×10^4 cells in 150 μL of media per well were seeded in 96 well plates and incubated overnight. The day afterwards, the different lipoplex formulations were added. Each experiment was performed in quadruplicate, using Effectene® Transfection Reagent (Qiagen), Lipofectamine™ 2000 (Invitrogen) and Fugene (Roche) as positive controls and untreated cells as negative controls. After two days incubation at 37° C. and 5% CO2 (the change of media after transfection was not necessary), the green fluorescent protein (GFP) expression, as a consequence of transfecting the pEGFP-C1, was evidenced using a fluorescent microscope (Leica) and measured by flow cytometry. For the flow cytometry analysis, cells were washed twice with PBS, detached with trypsin/EDTA, harvested with 2% ferum bovine serum (FBS) in PBS, centrifuged and resuspended with 2% FBS in PBS and analyzed using a BD FACSaria flow cytometer. Transfection efficiency was measured as percentage of transfected cells.\nReagents that obtained greater than 50% transfection were also analyzed against HEK293 and B16F10 cell lines. Transfection results (+ percentages of transfection between 5-25%; ++ percentages of transfection between 25-50%; N.D. not determined). MTT toxicity assay results are indicated between brackets with 100% being cell viability of untreated cells.", "values": [{"smiles": "CCCCCCCC/C=C\\CCCCCCCC(=O)NCCCN(CCCNC(=O)CCCCCCC/C=C\\CCCCCCCC)C(=O)/C=C\\C(=O)N[C@@H](CCCNC(=N)N)C(=O)N[C@@H](CCCNC(=N)N)C(=O)N[C@@H](CCCNC(=N)N)C(N)=O.O=C(O)C(F)(F)F.O=C(O)C(F)(F)F.O=C(O)C(F)(F)F", "note": "[Compound A3-Sp4-O]", "Transfection results (percentage of transfected cells), HeLa": "+ (percentages of transfection between 5-25%)"}, {"smiles": "CCCCCCCCCCCCCCCCCCCCCCCC(=O)NCCCN(CCCNC(=O)CCCCCCCCCCCCCCCCCCCCCCC)C(=O)CCC(=O)N[C@@H](CCCNC(=N)N)C(N)=O.O=C(O)C(F)(F)F", "note": "[Compound A1-Sp3-L]", "Transfection results (percentage of transfected cells), HeLa": "+ (percentages of transfection between 5-25%)"}, {"smiles": "CCCCCCCCCCCCCCCCCCCC(=O)NCCCN(CCCNC(=O)CCCCCCCCCCCCCCCCCCC)C(=O)/C=C\\C(=O)N[C@@H](CCCNC(=N)N)C(=O)N[C@@H](CCCNC(=N)N)C(N)=O.O=C(O)C(F)(F)F.O=C(O)C(F)(F)F", "note": "[Compound A2-Sp4-A]", "Transfection results (percentage of transfected cells), HeLa": "+ (percentages of transfection between 5-25%)"}, {"smiles": "CCCCCCCCCCCCCCCCCCCCCCCC(=O)NCCN(CCNC(=O)CCCCCCCCCCCCCCCCCCCCCCC)C(=O)/C=C\\C(=O)N[C@@H](CCCNC(=N)N)C(N)=O.O=C(O)C(F)(F)F", "note": "[Compound A1-Sp2-L]", "Transfection results (percentage of transfected cells), HeLa": "+ (percentages of transfection between 5-25%)"}, {"smiles": "CCCCCCCCCCCCCCCCCC(=O)NCCCN(CCCNC(=O)CCCCCCCCCCCCCCCCC)C(=O)CCC(=O)N[C@@H](CCCNC(=N)N)C(=O)N[C@@H](CCCNC(=N)N)C(N)=O.O=C(O)C(F)(F)F.O=C(O)C(F)(F)F", "note": "[Compound A2-Sp3-S]", "Transfection results (percentage of transfected cells), HeLa": "+ (percentages of transfection between 5-25%)"}, {"smiles": "CCCCCCCCCCCCCCCCCC(=O)NCCN(CCNC(=O)CCCCCCCCCCCCCCCCC)C(=O)/C=C\\C(=O)N[C@@H](CCCNC(=N)N)C(=O)N[C@@H](CCCNC(=N)N)C(N)=O.O=C(O)C(F)(F)F.O=C(O)C(F)(F)F", "note": "[Compound A2-Sp2-S]", "Transfection results (percentage of transfected cells), HeLa": "++ (percentages of transfection between 25-50%)"}, {"smiles": "CCCCCCCCCCCCCCCC(=O)NCCN(CCNC(=O)CCCCCCCCCCCCCCC)C(=O)/C=C\\C(=O)N[C@@H](CCCNC(=N)N)C(N)=O.O=C(O)C(F)(F)F", "note": "[Compound A1-Sp2-P]", "Transfection results (percentage of transfected cells), HeLa": "++ (percentages of transfection between 25-50%)"}, {"smiles": "CCCCCCCCCCCCCCCCCCCCCCCC(=O)NCCN(CCNC(=O)CCCCCCCCCCCCCCCCCCCCCCC)C(=O)/C=C\\C(=O)N[C@@H](CCCNC(=N)N)C(=O)N[C@@H](CCCNC(=N)N)C(=O)N[C@@H](CCCNC(=N)N)C(N)=O.O=C(O)C(F)(F)F.O=C(O)C(F)(F)F.O=C(O)C(F)(F)F", "note": "[Compound A3-Sp2-L]", "Transfection results (percentage of transfected cells), HeLa": "+ (percentages of transfection between 5-25%)"}, {"smiles": "CCCCCCCCCCCCCCCCCCCCCCCC(=O)NCCCN(CCCNC(=O)CCCCCCCCCCCCCCCCCCCCCCC)C(=O)CCC(=O)N[C@@H](CCCNC(=N)N)C(=O)N[C@@H](CCCNC(=N)N)C(=O)N[C@@H](CCCNC(=N)N)C(N)=O.O=C(O)C(F)(F)F.O=C(O)C(F)(F)F.O=C(O)C(F)(F)F", "note": "[Compound A3-Sp3-L]", "Transfection results (percentage of transfected cells), HeLa": "+ (percentages of transfection between 5-25%)"}, {"smiles": "CCCCCCCCCCCCCCCCCC(=O)NCCN(CCNC(=O)CCCCCCCCCCCCCCCCC)C(=O)CCC(=O)N[C@@H](CCCNC(=N)N)C(=O)N[C@@H](CCCNC(=N)N)C(=O)N[C@@H](CCCNC(=N)N)C(N)=O.O=C(O)C(F)(F)F.O=C(O)C(F)(F)F.O=C(O)C(F)(F)F", "note": "[Compound A3-Sp1-S]", "Transfection results (percentage of transfected cells), HeLa": "++ (percentages of transfection between 25-50%)"}, {"smiles": "CCCCCCCCCCCCCCCCCCCC(=O)NCCCN(CCCNC(=O)CCCCCCCCCCCCCCCCCCC)C(=O)CCC(=O)N[C@@H](CCCNC(=N)N)C(N)=O.O=C(O)C(F)(F)F", "note": "[Compound A1-Sp3-A]", "Transfection results (percentage of transfected cells), HeLa": "+ (percentages of transfection between 5-25%)"}, {"smiles": "CCCCCCCCCCCCCCCC(=O)NCCCN(CCCNC(=O)CCCCCCCCCCCCCCC)C(=O)/C=C\\C(=O)N[C@@H](CCCNC(=N)N)C(=O)N[C@@H](CCCNC(=N)N)C(N)=O.O=C(O)C(F)(F)F.O=C(O)C(F)(F)F", "note": "[Compound A2-Sp4-P]", "Transfection results (percentage of transfected cells), HeLa": "+ (percentages of transfection between 5-25%)"}, {"smiles": "CCCCCCCCCCCCCCCCCC(=O)NCCCN(CCCNC(=O)CCCCCCCCCCCCCCCCC)C(=O)/C=C\\C(=O)N[C@@H](CCCNC(=N)N)C(=O)N[C@@H](CCCNC(=N)N)C(=O)N[C@@H](CCCNC(=N)N)C(N)=O.O=C(O)C(F)(F)F.O=C(O)C(F)(F)F.O=C(O)C(F)(F)F", "note": "[Compound A3-Sp4-S]", "Transfection results (percentage of transfected cells), HeLa": "+ (percentages of transfection between 5-25%)"}, {"smiles": "CCCCCCCC/C=C\\CCCCCCCC(=O)NCCCN(CCCNC(=O)CCCCCCC/C=C\\CCCCCCCC)C(=O)CCC(=O)N[C@@H](CCCNC(=N)N)C(N)=O.O=C(O)C(F)(F)F", "note": "[Compound A1-Sp3-O]", "Transfection results (percentage of transfected cells), HeLa": "++ (percentages of transfection between 25-50%)"}, {"smiles": "CCCCCCCC/C=C\\CCCCCCCC(=O)NCCCN(CCCNC(=O)CCCCCCC/C=C\\CCCCCCCC)C(=O)/C=C\\C(=O)N[C@@H](CCCNC(=N)N)C(N)=O.O=C(O)C(F)(F)F", "note": "[Compound A1-Sp4-O]", "Transfection results (percentage of transfected cells), HeLa": "+ (percentages of transfection between 5-25%)"}, {"smiles": "CCCCCCCCCCCCCCCCCCCCCCCC(=O)NCCN(CCNC(=O)CCCCCCCCCCCCCCCCCCCCCCC)C(=O)CCC(=O)N[C@@H](CCCNC(=N)N)C(=O)N[C@@H](CCCNC(=N)N)C(N)=O.O=C(O)C(F)(F)F.O=C(O)C(F)(F)F", "note": "[Compound A2-Sp1-L]", "Transfection results (percentage of transfected cells), HeLa": "+ (percentages of transfection between 5-25%)"}, {"smiles": "CCCCCCCCCCCCCCCCCCCC(=O)NCCN(CCNC(=O)CCCCCCCCCCCCCCCCCCC)C(=O)/C=C\\C(=O)N[C@@H](CCCNC(=N)N)C(N)=O.O=C(O)C(F)(F)F", "note": "[Compound A1-Sp2-A]", "Transfection results (percentage of transfected cells), HeLa": "+ (percentages of transfection between 5-25%)"}, {"smiles": "CCCCCCCCCCCCCCCCCCCC(=O)NCCN(CCNC(=O)CCCCCCCCCCCCCCCCCCC)C(=O)CCC(=O)N[C@@H](CCCNC(=N)N)C(=O)N[C@@H](CCCNC(=N)N)C(=O)N[C@@H](CCCNC(=N)N)C(N)=O.O=C(O)C(F)(F)F.O=C(O)C(F)(F)F.O=C(O)C(F)(F)F", "note": "[Compound A3-Sp1-A]", "Transfection results (percentage of transfected cells), HeLa": "+ (percentages of transfection between 5-25%)"}, {"smiles": "CCCCCCCCCCCCCCCC(=O)NCCCN(CCCNC(=O)CCCCCCCCCCCCCCC)C(=O)/C=C\\C(=O)N[C@@H](CCCNC(=N)N)C(=O)N[C@@H](CCCNC(=N)N)C(=O)N[C@@H](CCCNC(=N)N)C(N)=O.O=C(O)C(F)(F)F.O=C(O)C(F)(F)F.O=C(O)C(F)(F)F", "note": "[Compound A3-Sp4-P]", "Transfection results (percentage of transfected cells), HeLa": "+ (percentages of transfection between 5-25%)"}, {"smiles": "CCCCCCCCCCCCCCCCCC(=O)NCCCN(CCCNC(=O)CCCCCCCCCCCCCCCCC)C(=O)CCC(=O)N[C@@H](CCCNC(=N)N)C(=O)N[C@@H](CCCNC(=N)N)C(=O)N[C@@H](CCCNC(=N)N)C(N)=O.O=C(O)C(F)(F)F.O=C(O)C(F)(F)F.O=C(O)C(F)(F)F", "note": "[Compound A3-Sp3-S]", "Transfection results (percentage of transfected cells), HeLa": "+ (percentages of transfection between 5-25%)"}, {"smiles": "CCCCCCCCCCCCCCCCCCCC(=O)NCCCN(CCCNC(=O)CCCCCCCCCCCCCCCCCCC)C(=O)/C=C\\C(=O)N[C@@H](CCCNC(=N)N)C(=O)N[C@@H](CCCNC(=N)N)C(=O)N[C@@H](CCCNC(=N)N)C(N)=O.O=C(O)C(F)(F)F.O=C(O)C(F)(F)F.O=C(O)C(F)(F)F", "note": "[Compound A3-Sp4-A]", "Transfection results (percentage of transfected cells), HeLa": "+ (percentages of transfection between 5-25%)"}, {"smiles": "CCCCCCCCCCCCCCCCCCCC(=O)NCCCN(CCCNC(=O)CCCCCCCCCCCCCCCCCCC)C(=O)CCC(=O)N[C@@H](CCCNC(=N)N)C(=O)N[C@@H](CCCNC(=N)N)C(N)=O.O=C(O)C(F)(F)F.O=C(O)C(F)(F)F", "note": "[Compound A2-Sp3-A]", "Transfection results (percentage of transfected cells), HeLa": "+ (percentages of transfection between 5-25%)"}, {"smiles": "CCCCCCCC/C=C\\CCCCCCCC(=O)NCCN(CCNC(=O)CCCCCCC/C=C\\CCCCCCCC)C(=O)CCC(=O)N[C@@H](CCCNC(=N)N)C(N)=O.O=C(O)C(F)(F)F", "note": "[Compound A1-Sp1-O]", "Transfection results (percentage of transfected cells), HeLa": "+ (percentages of transfection between 5-25%)"}, {"smiles": "CCCCCCCCCCCCCCCCCCCC(=O)NCCCN(CCCNC(=O)CCCCCCCCCCCCCCCCCCC)C(=O)/C=C\\C(=O)N[C@@H](CCCNC(=N)N)C(N)=O.O=C(O)C(F)(F)F", "note": "[Compound A1-Sp4-A]", "Transfection results (percentage of transfected cells), HeLa": "+ (percentages of transfection between 5-25%)"}, {"smiles": "CCCCCCCCCCCCCCCCCC(=O)NCCCN(CCCNC(=O)CCCCCCCCCCCCCCCCC)C(=O)CCC(=O)N[C@@H](CCCNC(=N)N)C(N)=O.O=C(O)C(F)(F)F", "note": "[Compound A1-Sp3-S]", "Transfection results (percentage of transfected cells), HeLa": "+ (percentages of transfection between 5-25%)"}]}]}
